Measurements taken from PubChem BioAssay AID720715 (Broad Institute, 2013).
Inconclusive results are not listed. Active and inactive are the calls of the source. No rule for the calls is given here.

Test system: not listed separately
Assay: viability loss in HEK293 kidney cells – cell-based, plate reader, dry powder, set 2, cytotoxicity control, dose response (AID 720715)
Conditions: HEK293 cytotoxicity, plate reader; at 12 µM (top of the series)

Row | Structure (SMILES) | activity change, negative = cytotoxicity
1 | O=C(c1nnsc1S(=O)c1ccc(Cl)cc1)N1CCOCC1 (stereo unspecified) | 0.296% (inactive)

Same assay, conditions: HEK293 cytotoxicity, plate reader; at 26 µM (top of the series)

Row | Structure (SMILES) | activity change, negative = cytotoxicity
2 | CC(C)[C@H](NC(=O)OC(C)(C)C)c1nnc(S(=O)(=O)Cc2c(F)cccc2Cl)o1 | -61.3% (inactive)
3 | COc1cc2ncnc(N[C@H](C)c3ccccc3)c2cc1OC | 70.1% (inactive)
4 | Cc1ccc2cc(CN(CC3CCCO3)C(=O)NC3CCCCC3)c(=O)[nH]c2c1C (stereo unspecified) | 5.24% (inactive)
5 | CCOC(=O)C1(Cc2ccc(Cl)cc2)CCN(C(C)Cc2ccc(O)c(OC)c2)CC1 (stereo unspecified) | -31.7% (inactive)
6 | CC(=O)N1CCN(C(=O)CCc2cc(C(C)(C)C)c(O)c(C(C)(C)C)c2)CC1 | -13.7% (inactive)
7 | CC(=O)Nc1cccc(NC(=O)CSc2ncc(-c3ccc(Cl)cc3)n2Cc2ccco2)c1 | -4.47% (inactive)
8 | COc1ccccc1N1CCN(c2ncc(C(=O)N3CCN(c4cccc(Cl)c4)CC3)c3ccccc23)CC1 | -7.71% (inactive)
9 | Cc1cc2c(cc(C(=O)N3CCC(C(=O)NC4CCCC4)CC3)n2Cc2c(F)cccc2Cl)o1 | -24.5% (inactive)
10 | CN(CC(=O)Nc1cccc(S(=O)(=O)N2CCOCC2)c1)CC(=O)Nc1ccc(Cl)c(C(F)(F)F)c1 | -50% (inactive)
11 | COc1ccc(NC(=O)c2nc(S(=O)(=O)Cc3cccc(C)c3)ncc2Cl)c(OC)c1 | -19.6% (inactive)
12 | Cc1cc(N2CCCC2=O)cc(C)c1S(=O)(=O)NCCOc1ccc(C(C)(C)C)cc1 | 57.1% (inactive)
13 | Fc1ccc(-n2nnnc2-c2cnc(-c3cccs3)nc2C(F)(F)F)cc1 | -31.8% (inactive)
14 | CCCc1nnc(NC(=O)c2nc(S(=O)(=O)Cc3ccc(C)cc3)ncc2Cl)s1 | -2.77% (inactive)
15 | O=c1c2ccccc2nc2n1C(CSCc1ccc(Cl)cc1Cl)CS2 (stereo unspecified) | -9.98% (inactive)
16 | CCCOc1ccccc1C1CC(=O)Nc2cc3c(cc21)OCO3 (stereo unspecified) | -19.2% (inactive)
17 | COc1ccc(NS(=O)(=O)c2ccc(C(=O)N3CCCCCC3)cc2)cc1 | -33.4% (inactive)
18 | Nc1nonc1C(=O)NCCNCc1cc(Br)ccc1OCc1ccc(F)cc1 | -59.1% (inactive)

Test system: HEK293 cytotoxicity, plate reader
Assay: as above
Conditions: not given

Row | Structure (SMILES) | AC50
19 | CCOC(=O)C1CCN(C(=O)c2ccc(OCC(=O)Nc3cccc(C(F)(F)F)c3)c(OC)c2)CC1 | 5.01 µM
20 | CN(C(=O)COc1ccccc1C(=O)NCCOc1ccccc1)c1ccccc1 | 18.1 µM
21 | CN(C)c1nc(-c2ccccn2)nnc1-c1ccccc1 | 5.55 µM
22 | COc1ccc(Nc2nc(N3CCCCC3)c3ccccc3n2)cc1 | 23.8 µM
23 | CC(C)(C)NC(=O)CSc1nc2ccc(NC(=O)CSc3nnnn3Cc3ccccc3)cc2s1 | 15.9 µM
24 | O=C1CSc2ccc(C(=O)Nc3cccc(S(=O)(=O)Nc4ccc(Br)cc4)c3)cc2N1 | 19.3 µM
25 | CCOC(=O)c1ccc(NC(=O)Cn2ncc(Cl)c(Cl)c2=O)cc1 | 15.1 µM
26 | COc1cc(CN2CCc3ccccc3C2)ccc1O | 14.7 µM
